# Biological target: T1, GPR23 (Homo sapiens, UniProt Q99677)
# T1 construct: gene LPAR4; native receptor in U87 glioma cell membranes; control vs GPR23-siRNA silenced
# Assay: [3H]-guanine radioligand saturation binding on U87 membranes; Bmax falls on GPR23 silencing
# T1 sequence (Q99677 whole entry): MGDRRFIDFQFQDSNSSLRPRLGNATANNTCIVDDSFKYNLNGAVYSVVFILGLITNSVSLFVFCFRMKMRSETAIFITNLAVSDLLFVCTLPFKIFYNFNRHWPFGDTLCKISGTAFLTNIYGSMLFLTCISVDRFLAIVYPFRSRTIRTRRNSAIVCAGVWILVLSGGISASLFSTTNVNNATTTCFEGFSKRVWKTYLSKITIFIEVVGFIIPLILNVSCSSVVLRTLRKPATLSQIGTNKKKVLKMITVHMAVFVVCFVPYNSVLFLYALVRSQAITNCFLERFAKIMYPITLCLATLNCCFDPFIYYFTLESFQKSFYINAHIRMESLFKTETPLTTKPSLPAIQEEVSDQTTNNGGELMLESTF
smiles,measurement,value
"Nc1nc2nc[nH]c2c(=O)[nH]1 [GUA, guanine]",Kd,29.4 ± 4.07 nM

# — PMC9527276, “Guanine inhibits the growth of human glioma and melanoma cell lines by interacting with GPR23” (Frontiers in Pharmacology, 2022)
